Read-outs that look alike come from different tables or passages of the source.
Key:
[1] = tested on: PSMA-positive 22RV1 xenografts; test: Efficacy in castrate or intact scid mice bearing androgen-independent 22RV1 xenograft; format: in vivo, C.B-17 scid mice; settings: 240 μg/kg, q3dX5
Protocol: Prostate tumors can be broadly classified as either androgen-dependent or androgen-independent. […] The 22RV1 cell line was originally developed as androgen-independent and can be grown as a xenograft in C.B-17 scid mice that have been left either intact or castrated. […] C.B-17 scid mice bearing CWR22 xenografts approximately 200 mm^3 in size received IV injections (200 μL constant volume) of the test articles according to the dosage and schedule shown in the Table 24.

[2] = tested on: LNCaP cells tumor xenografts; test: Murine J591-DM1 immunoconjugate in LNCaP xenografts; format: in vivo, BALB/c mice; settings: unconjugated, alone or with unconjugated mAb J591, intraperitoneal qday x 5 days
Protocol: Tumor xenografts of LNCaP cells were established in the right flank of BALB/c mice (5×10^6 cells injected subcutaneously). Animals were observed until tumors were visible (7-10 mm). Animals were then treated with PBS, unconjugated mAb J591, unconjugated DM1, both mAb J591 and DM1 but unconjugated, and J591-DM1 immunoconjugate (100, 200, 300, and 400 mcg/day intraperitoneal qday×5 days). The mAb J591 was modified to introduce dithiopyridyl groups and then conjugated to DM1 via a hindered disulfide bond, as described above. Unconjugated mAb J591 and DM1 were given in equimolar concentrations.
Tumor xenografts of both LNCaP cells (5×10^6 cells injected subcutaneously in the right flank) and PC3 cells (3×10^6 cells injected subcutaneously in the left flank) were established in BALB/c mice. Animals were observed until LNCaP tumors were visible (PC3 tumors were present but much smaller). Animals treated with J591-DM1 immunoconjugate: 300 mcg/day intraperitoneal qday×5 days
Tumor xenografts of LNCaP cells were established subcutaneously in the right flank of BALB/c mice. […]
All animals were photographed pre- and post-treatment and tagged for identification. Tumor volume was determined (length×width×depth) and closely followed. […]

CD-1 mice = tested on: CD-1 mice
Text: Use of both mice and cynomolgus monkeys for nonclinical testing allowed comparison of exposure and toxicity across species on the basis of body surface area (mg/m^2), and thus aided in selecting the SSD for the proposed Phase 1 clinical trial.

[3] = tested on: PSMA-positive CWR22 xenografts; test: Efficacy in PSMA-positive CWR22 xenografts; format: in vivo, C.B-17 scid mice
Protocol: Experiment: Male SCID mice were implanted by serial passage of CWR22 prostate tumor xenograft. […] All treatments were given intravenously. Tumor growth and animal health were continually monitored throughout the study with tumor growth measured every 3 days.
Experiment: Male C.B-17 SCID mice bearing CWR22 xenografts approximately 200 mm^3 in size received IV injections (200 μL constant volume) of the test articles according to the dose and schedule as shown in Table 22.
Male C.B-17 scid mice bearing CWR22 xenografts approximately 200 mm^3 in size received IV injections (200 μL constant volume) of the test articles according to the dose and schedule shown in the Table 23.
The objective of this study was to determine how much the dosing interval could be increased at this dosage before a loss of efficacy in terms of TGD would be observed. […] The growth delays for the other schedules were: q7d, 53.0 days; q21d, 48.0 days; and q28d, 26.9 days. Similar to other studies using the CWR22 xenograft model, no curative responses were observed, with all tumors eventually resuming growth (FIG. 18).
Experiment: Male SCID mice were implanted by serial passage of CWR22 prostate tumor xenograft. […] All treatments were given intravenously and on a schedule of every three days for 5 doses. Tumor growth and animal health were continually monitored throughout the study with tumor growth measured every 3 days.
Experiment: Male SCID mice were implanted by serial passage of CWR22 prostate tumor xenograft. […] All treatments were given intravenously and on a schedule of every seven days for 5 doses. Tumor growth and animal health were continually monitored throughout the study with tumor growth measured every 3 days.

COc1cc2cc(c1Cl)N(C)C(=O)C[C@H](OC(=O)[C@H](C)N(C)C(=O)CCS)[C@]1(C)O[C@H]1[C@H](C)[C@@H]1C[C@@](O)(NC(=O)O1)[C@H](OC)/C=C/C=C(\C)C2 [DM1, reference compound]
Relative TGD (TGD of castrate mice/TGD of intact mice) [1]: 1.4 | Tumor Growth Delay ([1]; Castrate Mice): 9.1 days | Tumor Growth Delay ([1]; Intact Mice): 6.3 days | lethality [2]: died within 48 hours of treatment completion | Degree of Toxicity and Major Target Organs (CD-1 mice; DM1 0.86 mg/m^2 (0.29 mg/kg), single IV, CD-1 mice): Slight mitosis/necrosis of epidermis | Degree of Toxicity and Major Target Organs (CD-1 mice; DM1 1.62 mg/m^2 ([…]), single IV, CD-1 mice): Mild bone marrow myeloid | mortality (CD-1 mice; DM1 8.64 mg/m^2 (2.88 mg/kg), single IV, CD-1 mice): 100% mortality attributed to severe | elevated AST and ALT values (CD-1 mice; DM1 […]^2 (1.08 mg/kg), single IV, CD-1 mice): moderate mitosis/necrosis of liver; no | STD (CD-1 mice; severely toxic dosage, single IV, CD-1 mice): 1.80 mg/kg | toxicity compared to deJ591-DM1 at equimolar dosages (CD-1 mice; single IV administration): tended to be less toxic than deJ591-DM1 at lower dosages | MTD (CD-1 mice; single IV, CD-1 mice): 1.08 mg/kg | Tumor Growth Delay ([3]; Comparison II, 240 μg/kg, q3dX5): 9.5 days | effect on CWR22 xenograft tumor growth ([3]; every three days for 5 doses, IV, equimolar to 14.5 mg/kg deJ591-DM1): some tumor growth delay
